From PubChem BioAssay (NCI) come the findings set out here.

Values joined by “and” are separate entries in the source; they are usually repeats but may differ in a detail not shown here. Equal entries are not always repeated.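 Interpolation was linear, between the two tested concentrations surrounding the appropriate level; five concentrations were tested over 48 hours in 96-well plates. Here, GI50 denotes the concentration required for 50% inhibition of growth. TGI is the concentration that stops growth completely.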 Where a SMILES comes first, the peptide text is derived from it. The star is where a group is joined. Cbz = O=C(OCc1ccccc1)*; Boc = CC(C)(C)OC(=O)*; OBn = c1ccc(CO*)cc1

What all share (assay): growth of human tumour cells (NCI), 48 h
Assay [1] relates to MCF7 breast.
The subject of assay [2] is A549 NSCLC.
Assay [3] has as its system PC-3 prostate.
Assay [4] has as its system RXF 393 renal.
The test system of assay [5] is SN12C renal.
Assay [6] has as its system MALME-3M melanoma.
Assay [7] relates to K-562 leukemia.
Assay [8] has as its system MDA-N.
In assay [9] the test system is HOP-92 NSCLC.
Assay [10] relates to HCC-2998 colon.
Assay [11] relates to UO-31 renal.
The test system of assay [12] is HL-60(TB) leukemia.

With `[N-]=[N+]=NC1=C(N=[N+]=[N-])c2cccc3cccc(c23)C1=O`, the TGI in [1], in assay [2], in assay [3], in assay [4], in [5] and in assay [6] was more than 100 µM throughout. Besides, the TGI in assay [7], in assay [8], in assay [9], in assay [10] and in assay [11] was more than 100 µM in each case.

Consider `Cc1ccc2c(c1)C(=O)c1ccc(C)nc1C2=O`, for which the TGI in assay [1] was more than 100 µM; in assay [2], more than 100 µM; in [3], more than 100 µM; in [4] it was more than 100 µM; in assay [5] it was 59.2 µM; in assay [6], 52.5 µM. Besides, the TGI in assay [7] is more than 100 µM; in [12], more than 100 µM; in assay [8], 31.4 µM; in assay [10], 97.1 µM; in assay [11], more than 100 µM.

For `C/C(O)=C/c1nc2sc(C)c(C)c2c(=O)s1`, the TGI was more than 100 µM in [1]; more than 100 µM in assay [2]; 69.5 µM in assay [3]; more than 100 µM in [4]; more than 100 µM in assay [5]; more than 100 µM in assay [6]. Also, the TGI in assay [7], in assay [12], in [8], in assay [9] and in assay [11] was more than 100 µM throughout.

As for `COc1ccc(/C=N/Nc2nc3ccccc3c(=O)n2-c2ccccc2)cc1`, the TGI is 40.5 µM in [1]; more than 100 µM in assay [2]; more than 100 µM in [3]; more than 100 µM in assay [4]; more than 100 µM in assay [5]; more than 100 µM in assay [6]. The TGI in [7] was more than 100 µM; in assay [12], more than 100 µM; in assay [8], more than 100 µM; in [10] it was more than 100 µM; in [11], 14.9 µM.

With `CCOC(=O)CC(=O)Nc1c(C(=O)OCC)sc2nc(SC)nc(Nc3ccc(OC)c(OC)c3)c12`, the TGI is more than 100 µM in assay [1]; more than 100 µM in assay [2]; more than 100 µM in assay [3]; 25.1 µM in assay [4]; more than 100 µM in [5]; more than 100 µM in [6]. The TGI is more than 100 µM in assay [12]; more than 100 µM in [8]; 33.7 µM in assay [9]; more than 100 µM in [10]; more than 100 µM in assay [11].

Consider `COc1cc(/C=C2\N=C(c3ccccc3)N(/N=C/c3cc4cc(C)ccc4nc3Cl)C2=O)ccc1O`, for which the TGI is 63.1 µM in assay [1]; more than 100 µM in assay [2]; 50.1 µM in assay [3]; more than 100 µM in [4]; 77.1 µM in assay [5]; more than 100 µM in [7]. Also, the TGI was 76.6 µM in assay [12]; 32 µM in assay [8]; more than 100 µM in [9]; more than 100 µM in assay [10]; more than 100 µM in [11].

In the case of `O=C(CN1c2ccccc2Sc2ccccc21)n1cnc2ccccc21`, the TGI in assay [1], in assay [2], in assay [3], in assay [4], in assay [5] and in assay [6] was more than 100 µM each time. Besides, the TGI in assay [7] is more than 100 µM; in [12], more than 100 µM; in assay [8], more than 100 µM; in assay [9], 93.9 µM; in [11] it was more than 100 µM.

Take `CCOP(=O)(OCC)OC1CC(n2cnc3c(N(CC)CC)ncnc32)OC1CO[Si](C)(C)C(C)(C)C` (configuration not stated): the TGI is 39.8 µM in [1]; 29.8 µM in assay [2]; 28.5 µM in assay [3]; 32.3 µM in assay [4]; 37.8 µM in [5]; 41.4 µM in assay [6]. Besides, the TGI in [7] is 57.6 µM; in assay [12] it was more than 100 µM; in assay [8], 32 µM; in [10], 43.8 µM; in [11], 35.4 µM.

Turning to `CC(C)(C)OC(=O)N1CCC[C@H]1CSC[C@@H]1CCCN1C(=O)OC(C)(C)C`, the TGI was 96.3 µM in [1]; 87.3 µM in assay [2]; 82.1 µM in assay [3]; 69 µM in [4]; more than 100 µM in assay [5]; 63.5 µM in assay [6]. The TGI in assay [7] is 84.7 µM; in assay [8], more than 100 µM; in assay [9], 39.5 µM; in assay [10] it was more than 100 µM; in assay [11], 74.9 µM.

With `COc1cc([C@@H]2c3cc4c(cc3[C@@H](N=Cc3ccc(C(=O)O[C@H]5C[C@H]6OC[C@@]6(OC(C)=O)[C@H]6[C@H](OC(=O)c7ccccc7)[C@]7(O)C[C@H](OC(=O)[C@H](OC(=O)c8ccc(C=N[C@@H]9c%10cc%11c(cc%10[C@@H](c%10cc(OC)c(O)c(OC)c%10)[C@H]%10C(=O)OC[C@@H]%109)OCO%11)cc8)[C@@H](NC(=O)c8ccccc8)c8ccccc8)C(C)=C([C@@H](OC(C)=O)C(=O)[C@]56C)C7(C)C)cc3)C3COC(=O)C32)OCO4)cc(C)c1O` (some centres not stated), the TGI was 48.5 µM in assay [1]; more than 50 µM in assay [2]; more than 27.5 µM in [3]; more than 50 µM in [4]; more than 50 µM in assay [5]; more than 50 µM in [6]. The TGI in assay [7] was more than 50 µM; in assay [12], more than 50 µM; in [8], 7.71 µM; in assay [9], more than 50 µM; in assay [10], more than 50 µM.

Consider `N/C(=N/O)c1cn(C2OC(CO)C(O)C2O)c2ncnc(NO)c12` (configuration not stated), for which the TGI in assay [1] was 23.2 µM; in assay [2] it was more than 100 µM; in assay [3], 3.17 µM; in [4], 14.7 µM; in [5] it was more than 100 µM; in assay [6] it was 0.408 µM. Besides, the TGI in [7] is more than 100 µM; in [12], 0.76 µM; in assay [8] it was more than 100 µM; in assay [9] it was more than 45.4 µM; in assay [10], 7.12 µM.

For the molecule `COc1cc(-c2c(C(C)=O)c(-c3ccccc3)n(C3OC(COC(C)=O)C(OC(C)=O)C(OC(C)=O)C3OC(C)=O)c(=S)c2C#N)ccc1O` (configuration not stated), the TGI in [1], in assay [2], in assay [3], in assay [4], in assay [5] and in [6] was more than 100 µM in each case. The TGI was more than 100 µM in [7]; more than 100 µM in [8]; more than 100 µM in assay [9]; > 100 µM and 79.5 µM in [10]; more than 100 µM in assay [11]. Also, the GI50 in [6] was 37 µM and > 100 µM; in [10] it was > 100 µM and 29.6 µM.

In the case of `CCC/C(Cl)=N/OC(=O)Nc1cccc(F)c1`, the TGI in [1] stood at 8.85 µM; in [2], 41.6 µM; in [3], 30.7 µM; in assay [4], 20.5 µM; in [5], 15.2 µM; in assay [6], 3.11 µM. For the same molecule, the TGI in [7] is 8.87 µM; in assay [8], 23.1 µM; in assay [9], 3.18 µM; in assay [10], 30.4 µM; in assay [11], 23.3 µM.

On to `O=C(O)C1CCCCN1CCc1c[nH]c2ccccc12` (configuration not stated), for which the TGI in assay [1], in [2], in [3], in assay [4], in assay [5] and in [6] was more than 100 µM in each case. Moreover, the TGI in assay [7], in assay [12], in assay [8], in assay [9] and in assay [10] was more than 100 µM throughout.

Turning to `C=C1C(=O)OC2C3C(=C)[C@@H](OC(C)=O)CC3C(C)=CC(OC(=O)C(C)(O)C(C)OC(C)=O)[C@@H]12` (some centres not stated), the TGI in assay [1] came out at 22.9 µM; in [2] it was 77.8 µM; in [3], 30.7 µM; in assay [4] it was 17.4 µM; in [5] it was 27.8 µM; in assay [6] it was 20.2 µM. The TGI in assay [7] worked out at 14.8 µM; in assay [12] it was 5.57 µM; in assay [8], 18.5 µM; in assay [10] it was 29.7 µM; in assay [11], 24.9 µM.

Consider `CC1=NN(c2ccccc2Cl)C2(C1)SCC(=O)N2c1nc2ccccc2s1` (configuration not stated), for which the TGI in assay [1], in [2], in assay [3], in assay [4], in assay [5] and in assay [6] was more than 100 µM throughout. The TGI in assay [7], in assay [8], in assay [9], in [10] and in assay [11] was more than 100 µM in each case.

For the molecule `N#CCCN(CCC#N)c1ccc(/C=C2\N=C(c3ccccc3)N(NC(=O)c3ccncc3)C2=O)cc1`, the TGI in assay [1], in assay [2], in assay [3], in assay [4], in assay [5] and in assay [7] was more than 100 µM in each case. The TGI in assay [12], in assay [8], in assay [9] and in [11] was more than 100 µM in each case.

`COc1ccc(N=C/C=C/C(=C/COC(C)=O)OC(C)=O)cc1`: the TGI in assay [1] is more than 100 µM; in [2] it was more than 100 µM; in [3], more than 100 µM; in assay [4], 57.4 µM; in [5] it was 74.9 µM; in assay [6], 69.5 µM. Further, the TGI was 19.2 µM in assay [7]; 98.5 µM in assay [12]; 43.8 µM in [8]; 57.4 µM in assay [9]; more than 100 µM in assay [10].

For the molecule `CN(N=O)C(N)=NC(=O)c1ccccc1`, the TGI in [1], in [2], in [3], in [4], in assay [6] and in assay [7] was more than 100 µM in each case. For the same molecule, the TGI in [8], in assay [9] and in [11] was more than 100 µM in each case.

For the molecule `O=C1C(c2c(O)n(-c3ccccc3)c3ccccc23)=Nc2ccccc21`, the TGI in assay [1] was 37 µM; in assay [2], more than 100 µM; in assay [3] it was 80.9 µM; in [4], 41.6 µM; in [5], more than 100 µM; in [6] it was more than 100 µM. The TGI in assay [7] is more than 100 µM; in assay [8] it was more than 100 µM; in assay [9], 84.9 µM; in [10], 75.5 µM; in assay [11] it was more than 100 µM.

With `COC(=O)C1CCCCCCCCCCC12SCCCS2` (configuration not stated), the TGI in [1] was more than 100 µM; in assay [2], 36.7 µM; in assay [3], 50 µM; in [4], 36.4 µM; in assay [5] it was 31.8 µM; in assay [6], 37.6 µM. Moreover, the TGI in [7] was 56.7 µM; in [8] it was more than 100 µM; in assay [9] it was 39.9 µM; in assay [10], 61 µM; in assay [11], 38.8 µM.

Regarding `COC(=O)C(CCCCNC(=O)OCc1ccccc1)NC(=O)C(CCC(=O)OCc1ccccc1)NC(=O)OC(C)(C)C` (configuration not stated) (Boc-Glu(OBn)-Lys(Cbz)-OMe; configuration not given here), the TGI in assay [1], in assay [2], in [3], in assay [4], in [5] and in assay [6] was more than 100 µM each time. The TGI in [7], in assay [12], in [8], in assay [9] and in [11] was more than 100 µM each time.

For the molecule `COC(=O)[C@@H](COC(=O)/C=C/c1ccc(OC(C)=O)c(OC(C)=O)c1)NC(=O)/C=C/c1ccc(OC(C)=O)c(OC(C)=O)c1`, the TGI was more than 100 µM in assay [1]; more than 100 µM in assay [2]; more than 100 µM in [3]; more than 100 µM in assay [4]; 46.7 µM in assay [5]; 29.2 µM in assay [6]. The TGI was more than 100 µM in [7]; more than 100 µM in assay [12]; 50.3 µM in assay [8]; more than 100 µM in assay [9]; 76.4 µM in [10].
